The source of these data is patent US20140148484A1, “PYRAZOLE COMPOUNDS FOR TREATING HAIRLOSS” (Boehringer Ingelheim International GmbH, priority 2012, published 2014).

Structures are written as SMILES.

What is called Ki is the equilibrium dissociation constant of an inhibitor or competing ligand from its target. Low values mean higher affinity, high ones lower affinity.

The assay concerns the target T1, human CRTH2 receptor (Homo sapiens, UniProt Q9Y5Y4).
T1 construct: host or cells: CHO-K1 (CHO-K1-hCRTH2 cells); membranes prepared in house from the purchased cell line
T1 sequence (Q9Y5Y4 1-395): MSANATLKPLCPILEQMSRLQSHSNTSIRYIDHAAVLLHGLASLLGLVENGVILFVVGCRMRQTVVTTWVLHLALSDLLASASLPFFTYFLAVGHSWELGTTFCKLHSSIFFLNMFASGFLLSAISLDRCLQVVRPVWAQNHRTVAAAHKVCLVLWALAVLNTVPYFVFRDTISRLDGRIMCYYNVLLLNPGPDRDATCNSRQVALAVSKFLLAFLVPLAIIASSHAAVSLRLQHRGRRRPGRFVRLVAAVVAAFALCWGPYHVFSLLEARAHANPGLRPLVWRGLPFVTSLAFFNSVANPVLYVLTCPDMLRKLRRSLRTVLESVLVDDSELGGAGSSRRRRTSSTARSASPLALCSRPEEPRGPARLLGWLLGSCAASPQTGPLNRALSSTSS
In words: Human CRTH2 receptor membrane radioligand binding assay (SPA, [3H]-PGD2). The conditions noted are these: displacement of [3H]-PGD2 (1 nM) from CHO-K1-hCRTH2 cell membranes, 3 h room temperature. As to the method: Preparation of Human CRTH2 Receptor Membranes and Radioligand Binding Assay
The binding of CRTH2 antagonists is determined using membranes prepared from Chinese hamster ovary cells (CHO-K1 cells) transfected with the human CRTH2 receptor (CHO-K1-hCRTH2 cells, Perkin Elmer, Cat No ES-561-C). To produce cell membranes the CHO-K1-hCRTH2 cells are cultured in suspension in CHO SFMII medium supplemented with 400 μg/ml G418. The cells are harvested by centrifugation at 300 g for 10 min at room temperature. The cell pellet is resuspended in Phosphate Buffer Saline (PBS) including a protease inhibitor mix (Complete, Roche) and adjusted to a concentration of 10E7 cells/ml. The CHO-K1-hCRTH2 cells are disrupted by nitrogen […] to obtain the membrane preparation. Cell debris is removed by centrifugation (500 g at 4° C., 30 min) and the supernatant is transferred into fresh tubes followed by a second centrifugation at 40000 g for 1 h at 4° C. to sediment the membranes. The membranes are suspended in SPA incubation buffer (50 mM Tris HCl, 10 mM MgCl2, 150 mM NaCl, 1 mM EDTA, pH 7.4) without bovine serum albumin, homogenized by passing through a single use needle (Terumo, 23G×1″), and stored in aliquots at −80° C.
The CRTH2 receptor binding assay is performed in a scintillation proximity assay (SPA) format with the radioligand [^3H]-PGD2 (Perkin Elmer, NET616000MC). CHO-K1-hCRTH2 cell membranes are again homogenized by passing through a single use needle (Terumo, 23G×1″) and diluted in SPA incubation buffer in suitable concentrations (0.5-10 μg protein/well). The SPA assay is set up in 96 well microtiter plates (Perkin Elmer, CatNo. 6005040) in SPA incubation buffer with a final volume of 200 μl per well and final concentration of 50 mM Tris-HCl, 10 mM MgCl2, 150 mM NaCl, 1 mM EDTA pH 7.4, 0.1% bovine serum albumin). The SPA assay mixture contains 60 μl of the membrane suspension, 80 μl of Wheat Germ Agglutinin coated PVT beads (GE Healthcare, RPNQ-0001, 0.3 mg/well), 40 μl of [3H]-PGD2 diluted in SPA buffer to a final concentration of 1 nM (50 000 dpm) and 20 μl of the test compound (dissolved in dimethylsulfoxid). The SPA assay mixture is incubated for 3 h at room temperature. Bound radioactivity is determined with a scintillation counter (Micro Beta Trilux, Wallac).
The binding of [^3H]-PGD2 to CHO-K1-hCRTH2 cell membranes is determined in the absence (total binding, Bo) and presence (non-specific binding, NSB) of unlabelled PGD2 (1 μM, Cayman Chemical, Cat No 12010) or a reference CRTH2 antagonist (10 μM CAY10471, Cayman Chemical, Cat No 10006735).
Determination of the affinity of a test compound is calculated by subtraction of the non-specific binding (NSB) from the total binding (Bo) or the binding in the presence of the test compound (B) at a given compound concentration. […] The Bo−NSB value is set to 0% inhibition.
On the technique in general: Loss of bound radioactivity is the signal in a displacement assay; it reports binding, not function.
For the compound `CCc1c(CC(=O)O)c(C2CC2)nn1Cc1ccc(NC(=O)c2ccc(Cl)cc2C)cc1` [Example 2.46], affinity was put at a Ki of 0.6 nM.

In turn, `Cc1nn(Cc2ccc(NC(=O)/C=C/c3ccccc3)cc2Cl)c(C)c1CC(=O)O` [Example 7.11] came in with a Ki of 0.9 nM.

Regarding `Cc1nn(Cc2ccc(NC(=O)OCc3ccc(Cl)c(Cl)c3)cc2)c(C)c1CC(=O)O` [Example 3.4], the Ki was found to be 0.5 nM.

Turning to `Cc1nn(Cc2ccc(NC(=O)c3ccc(Cl)c(Cl)c3)cn2)c(C)c1CC(=O)O` [Example 18.1], the affinity corresponds to a Ki of 1.6 nM.

On to `CCc1nn(C(C)c2ccc(C(=O)Nc3ccc(C(F)(F)F)cc3)cc2)c(CC)c1CC(=O)O` (stereo not shown) [Example 17.2], for which the Ki was 4.3 nM.

`Cc1nn(Cc2ccc(NC(=O)C3CCC3)cc2)c(C)c1CC(=O)O` [Example 1.35] yielded an inhibition constant Ki of 44.6 nM.

On to `Cc1nn(Cc2ccc(NC(=O)OCc3ccccc3)cc2)c(C)c1CC(=O)O` [Example 3.1], for which the Ki was determined as 3.8 nM.

Take `Cc1ccc(Br)c(C(=O)Nc2ccc(Cn3nc(C)c(CC(=O)O)c3C)cc2)c1` [Example 1.31]: the Ki amounted to 18.9 nM.

Regarding `CCc1nn(Cc2ccc(NC(=O)c3ccccc3C3CCCCC3)cc2)c(CC)c1CC(=O)O` [Example 2.29], affinity was put at a Ki of 6.3 nM.

With `Cc1cc(C(=O)Nc2ccc(Cn3nc(C)c(CC(=O)O)c3C)cc2)c(C)cc1Br` [Example 1.17], the inhibition constant Ki is 2.5 nM.

`Cc1nn(Cc2ccc(NCc3ccccc3)cc2)c(C)c1CC(=O)O` [Example 6.2]: the inhibitory constant (Ki) came to 311 nM.

Take `Cc1nn(Cc2ccc(NC(=O)c3ccc4ccccc4c3C)cc2)c(C)c1CC(=O)O` [Example 1.26]: affinity was put at a Ki of 36 nM.

`CCc1nn(Cc2ccc(C(=O)NC3CCC(C(C)(C)C)CC3)cc2)c(CC)c1CC(=O)O` (stereo not shown) [Example 9.26]: the affinity, expressed as Ki, was 39.4 nM.

`Cc1ccc(C(=O)Nc2ccc(Cn3nc(C)c(CC(=O)O)c3C)cc2)c(C(F)(F)F)c1` [Example 1.21] had an inhibition constant (Ki) of 80.2 nM.

`Cc1nn(Cc2ccc(NC(=O)c3ccc(Cl)c(Cl)c3)cc2)c(C)c1CCC(=O)O` [Example 8.6]: the Ki turned out to be 126 nM.

`Cc1nn(Cc2ccc(NC(=O)OCc3ccccc3)cc2)c(C)c1CCC(=O)O` [Example 3.2]: affinity was put at a Ki of 786 nM.

With `CCc1nn(Cc2ccc(OCc3ccc(OC(F)(F)F)c(Cl)c3)cc2)c(CC)c1CC(=O)O` [Example 13.11], the Ki is 48.8 nM.

Consider `CCc1nn(Cc2ccc(C(=O)Nc3ccc(Br)c(F)c3)cc2)c(CC)c1CC(=O)O` [Example 9.16], for which the Ki amounted to 6.7 nM.

Consider `Cc1nn(Cc2ccc(C(=O)Nc3ccc(Cl)c(Cl)c3)cc2)c(C)c1CC(=O)O` [Example 9.3], for which the affinity, expressed as Ki, was 8.7 nM.

Consider `CCc1nn(Cc2ccc(NC(=O)c3ccc(C)cc3)cc2)c(CC)c1CC(=O)O` [Example 2.4], for which the inhibition constant Ki amounted to 1.3 nM.

`Cc1cc(Cn2nc(C)c(CC(=O)O)c2C)ccc1NC(=O)c1ccc(Cl)c(Cl)c1` [Example 7.4] gave a Ki of 2.2 nM.

Consider `CCc1nn(Cc2ccc(OCc3cc(Cl)cc(Cl)c3)cc2)c(CC)c1CC(=O)O` [Example 13.8], for which the Ki stood at 15.5 nM.

In the case of `CCc1nn(Cc2ccc(C(=O)Nc3ccc(F)c(Cl)c3)cc2)c(CC)c1CC(=O)O` [Example 9.12], the affinity, expressed as Ki, was 4.8 nM.

In turn, `CCc1ccccc1C(=O)Nc1ccc(Cn2nc(CC)c(CC(=O)O)c2CC)cc1` [Example 2.23] registered an inhibition constant Ki of 6.1 nM.

The compound `CCc1nn(Cc2ccc(C(=O)Nc3ccc(Cl)c(F)c3)cc2)c(CC)c1CC(=O)O` [Example 9.11] registered an inhibition constant Ki of 7.1 nM.

On to `CCc1nn(Cc2ccc(NC(=O)c3cc(C)ccc3Br)cc2)c(CC)c1CC(=O)O` [Example 2.19], for which the Ki is 5.8 nM.

Take `CCc1nn(Cc2ccc(OCc3ccc(OC)c(C(F)(F)F)c3)cc2)c(CC)c1CC(=O)O` [Example 13.12]: the Ki was found to be 5 nM.

Take `CCc1nn(Cc2ccc(OCc3cccc(Cl)c3)cc2)c(CC)c1CC(=O)O` [Example 13.9]: the affinity corresponds to a Ki of 39.1 nM.

The compound `Cc1nn(Cc2ccc(NC(=O)c3ccccc3)cc2Cl)c(C)c1CC(=O)O` [Example 7.10] registered a Ki of 5.5 nM.

For the compound `CCc1nn(Cc2ccc(C(=O)NCc3ccc4ccccc4c3)cc2)c(CC)c1CC(=O)O` [Example 9.17], the Ki was 34.9 nM.

`Cc1cc(Cn2nc(C)c(CC(=O)O)c2C)ccc1NC(=O)c1ccc(C(F)(F)F)cc1` [Example 7.3] showed a Ki of 13.5 nM.

`CCc1nn(Cc2ccc(NC(=O)c3ccc(C)cc3C)cc2)c(CC)c1CC(=O)O` [Example 2.15] had a Ki of 1.4 nM.

Turning to `Cc1nn(Cc2ccc(CSc3ccc(C(F)(F)F)cc3)cc2)c(C)c1CC(=O)O` [Example 16.1], the affinity corresponds to a Ki of 992 nM.

For `Cc1cc(Cl)ccc1C(=O)Nc1ccc(Cn2nc(C)c(CC(=O)O)c2C)c(F)c1` [Example 7.19], the Ki amounted to 5.8 nM.

The compound `Cc1nn(Cc2ccc(OCc3ccc(Cl)c(Cl)c3)cc2)c(C)c1CC(=O)O` [Example 13.1] registered an inhibition constant Ki of 30 nM.

`Cc1ccc(NC(=O)c2ccc(Cn3nc(C)c(CC(=O)O)c3C)cc2)cc1Cl` [Example 9.7] showed a Ki of 7.5 nM.

In the case of `Cc1nn(Cc2ccc(NC(=O)c3ccc(Cl)c(Cl)c3)cc2)c(C)c1CC(=O)O` [Example 1.8], the Ki amounted to 2.6 nM.

`CCc1nn(Cc2ccc(NC(=O)c3ccc(C(F)(F)F)cc3)cc2)c(CC)c1CC(=O)O` [Example 2.1] came in with a Ki of 0.2 nM.

`Cc1ccc(C(=O)Nc2ccc(Cn3nc(C)c(CC(=O)O)c3C)c(Cl)c2)c(C)c1` [Example 7.12] came in with an inhibitory constant (Ki) of 4.7 nM.

With `Cc1nn(Cc2ccc(NC(=O)c3ccc(C(F)(F)F)cc3)cc2Cl)c(C)c1CC(=O)O` [Example 7.8], the inhibition constant (Ki) was 0.8 nM.

In the case of `CCc1nn(Cc2ccc(C(=O)N[C@H]3CC[C@H](c4ccccc4)CC3)cc2)c(CC)c1CC(=O)O` [Example 9.21], the Ki worked out at 7.8 nM.

For the compound `Cc1nn(Cc2ccc(OCc3ccc(C(F)(F)F)cc3)cc2)c(C)c1CC(=O)O` [Example 13.2], the Ki was determined as 1070 nM.

Compound `Cc1nn(Cc2ccc(NC(=O)c3ccc4ccccc4c3)cc2)c(C)c1CC(=O)O` [Example 1.7] yielded a Ki of 2.5 nM.

In the case of `Cc1c(CC(=O)O)cnn1Cc1ccc(NC(=O)c2ccc(Cl)c(Cl)c2)cc1` [Example 2.56], the inhibitory constant (Ki) turned out to be 27.8 nM.

Take `Cc1nn(Cc2ccc(NC(=O)c3ccc(Cl)c(Cl)c3)cc2)c(-c2ccccc2)c1CC(=O)O` [Example 2.10]: the affinity corresponds to a Ki of 0.8 nM.

As to `Cc1nn(Cc2ccc([S+]([O-])Cc3ccc4ccccc4c3)cc2)c(C)c1CC(=O)O` (stereo not shown) [Example 19.1], affinity was put at a Ki of 43.5 nM.

Consider `CCc1nn(Cc2ccc(C(=O)NC3CCC(C)(C)CC3)cc2)c(CC)c1CC(=O)O` [Example 9.24], for which the inhibition constant (Ki) turned out to be 49.1 nM.

For `CCc1nn(Cc2ccc(NC(=O)c3ccc(Br)cc3C)cc2)c(CC)c1CC(=O)O` [Example 2.17], affinity was put at a Ki of 0.7 nM.

`CCc1nn(Cc2ccc(NC(=O)c3ccc(Cl)cc3Br)cc2)c(CC)c1CC(=O)O` [Example 2.24] had a Ki of 2.8 nM.

`COc1c(CC(=O)O)c(C)nn1Cc1ccc(NC(=O)c2ccc3ccccc3c2)cc1` [Example 2.60] yielded a Ki of 4.2 nM.

`O=C(O)Cc1c(-c2ccccc2)nn(Cc2ccc(NC(=O)c3ccc(Cl)cc3)cc2)c1-c1ccccc1` [Example 2.43] had a Ki of 17.4 nM.

`CCc1nn(Cc2ccc(NC(=O)OCc3ccccc3)cc2)c(CC)c1CC(=O)O` [Example 3.3]: the affinity, expressed as Ki, was 0.3 nM.
